Assay results: patent publication US7629385B2, “Sphingolipid-derived pharmaceutical compositions” (priority 2004, dated 2009)

How the values were obtained:
PR8 virus = test: microbe, parasite or virus in culture; format: cell-based, influenza virus
Raft liposomes = test: Disrafter-Liposome Raftophile Assay (D-LRA); conditions: test compound 100 μM
Description: The raftophilicity of certain fluorescent indicators varies with the raft content of liposomes which, in turn, is determined by their lipid composition and the presence of raft modulators.
The D-LRA assay detects two extremes of raft modulation, disrafting and raft augmentation. % disrafting below 0 results from an actual increase in partition of the indicator, caused by an increased raft content of the liposomes. […] Significance can be ascribed to values above 25% (disrafting) and below −25% (disrafters by “augmentation”).
Liposomes (defined below) with a raft content of about 50% are incubated with potential disrafters. The change in raft content is then determined with an indicator (standard raftophile).
Raft liposomes: (35% cholesterol, 10.5% shingomyelin (SM), 3.5% GM1, 25.5% phosphatidylethanolamine (PE) and 25.5% phosphatidylcholine (PC))
Non-raft liposomes: N liposomes (50% PE, PC)
Liposomes are prepared by spreading lipids dissolved in tert. butanol on a glass surface at 50° C. in a rotary evaporator rinsed with nitrogen. After 6 h desiccation the lipids are taken up in 40 mM octyl-β-D-glucoside (OG) to a concentration of 1 mg/ml and dialysed for 24 h against 2 changes of 5 I PBS with 25 g Biobeads (Amberlite XAD-2) at 22° C.
Indicators are fluorescent compounds which preferentially partition into rafts. These are selected to represent different structural classes, and different excitation/emission wavelengths. This is important when raft modulators are tested which interfere with indicator fluorescence.
Perylene is a raftophilic compound which embeds completely into membranes.
GS-96 is a raftophilic adduct of the general structure cholesterol-linker-rhodamine-peptide (only the cholesterol is membrane-inserted).
N and R Liposomes were diluted into PBS to a final lipid concentration of 200 μg/ml and 100 μl aliquots preincubated 30 min 37° C. on a thermomixer (1000 rpm).
1 μl of DMSO (solvent controls) and the test compound stock solutions (all 10 mM in DMSO, except where noted) were added and incubated 2 h as above.
1 μl indicator in DMSO was then added (final indicator concentrations GS-96 0.2 μM, perylene 2 μM) and incubation continued for 1 h as above
Incubation mixes were centrifuged 20 min in the TLA-100 rotor of the Beckman Optima centrifuge at 400 000 g (37° C.).

RBL-2H3 cells = test: Degranulation assay (β-hexosaminidase release); format: cell-based, rat
HIV-1 strain NL4-3 = test: HIV assay: infection of HeLa TZM cells; format: cell-based; conditions: Human immunodeficiency virus 1, NL43, vs solvent
Influenza virus = test: Virus budding assay (influenza assay); format: cell-based; conditions: MDCK cells
[1] = tested on: vesicular stomatitis virus (VSV); format: cell-based; conditions: HeLa cells
[2] = unidentified influenza virus, PR8, MDCK, read-out: inhibition of PR8 virus replication
[3] = Rattus norvegicus, RBL-2H3, 25 μM, vs solvent vehicle

Row | SMILES | inhibition at 100 µM (PR8 virus; [2]) [%] | Disrafting Activity [%] (Raft liposomes; perylene as marker) | inhibition at 20 µM (PR8 virus; [2]) [%] | further results
1 | CCCCCCCCCCCCC/C=C/[C@@H](O)[C@H](CO)NC(=O)/C=C(\C)CC/C=C(\C)CCC=C(C)C [Compound 10p] | 39.2 | – | – | Disrafting Activity [%] (Raft liposomes; GS-96 as marker): 58.9%
2 | CCCCCCCCCCCCC/C=C/[C@@H](O)[C@H](CO)NCCCCCCCCCCCCCCCC [Compound 10n] | 34.7 | 94.8 | – | –
3 | CCCCCCCCCCCCC/C=C/[C@@H](O)[C@H](CO)NC(=O)[C@H]1CC[C@H](C(C)(C)C)CC1 [Compound 10e, N-(trans-4-tert-butylcyclohexylcarbonyl)-D-erythro-sphingosine] | – | – | – | inhibition at 10 µM (PR8 virus; [2]): 21%
4 | CCCCCCCCCCCCC/C=C/[C@@H](O)[C@H](CO)NC(=O)CCOCCOCCOCCOCCN [Compound 10w] | – | 53.1 | – | inhibition at 6.25 µM (RBL-2H3 cells; Rattus norvegicus, RBL-2H3, 6.25 μM, vs solvent vehicle): 69%; inhibition at 25 µM (PR8 virus; [2]): 50.3%; inhibition at 20 µM (HIV-1 strain NL4-3): 52%
5 | CCCCCCCCCCCCC/C=C/[C@@H](OC)[C@@H](N)CO [Compound 10l, 3-Methylated D-erythro-sphingosine] | – | – | – | inhibition at 25 µM (RBL-2H3 cells; [3]): 84%
6 | CCCCCCCCCCCCC/C=C/[C@H](O)[C@H](CO)NCCCCCCCCCCCCCCCC [Compound 10o] | 40.8 | 91.0 | – | –
7 | CCCCCCCCCCCCC/C=C/[C@@H](O)[C@H](CO)NC(=O)COC [Compound 10u] | – | 97.0 | 70.3 | inhibition at 25 µM (RBL-2H3 cells; [3]): 63%
8 | CCCCCCCCCCCCC/C=C/[C@@H](O)[C@H](CO)NC(=O)COCCOC [Compound 10h, N-(3,6-Dioxaheptanoyl)-D-erythro-sphingosine] | – | 72.2 | 75 | inhibition at 25 µM (RBL-2H3 cells; [3]): 71%; result in the virus budding assay (Influenza virus): particularly good results
9 | CCCCCCCCCCCCC/C=C/[C@@H](OC)[C@H](CO)NC(=O)/C=C(\C)CC/C=C(\C)CCC=C(C)C [Compound 10q] | 61.6 | – | – | –
10 | CCCCCCCCCCCCC/C=C/[C@@H](O)[C@H](CO)NC(=O)COCCOC [Compound 10a] | – | 99.2 | – | effect on viral infection in the VSV counterscreen [1]: no inhibitory effect on viral infection at all
11 | CCCCCCCCCCCCCC=CC(O)C(CO)NC(=O)COCCOCCOCCOCCOC [Compound 10g, N-(3,6,9,12,15-Pentoxahexadecanoyl)-D-erythro-sphingosine] | – | 89.3 | – | activity in the mast cell degranulation assay (words) (RBL-2H3 cells): strongly inhibitory; inhibition of the release of β-hexosaminidase (RBL-2H3 cells; 25 μM, vs solvent vehicle): 65%; inhibition of PR8 virus replication (PR8 virus; 20 μM, MDCK cells, vs solvent vehicle): 70%
12 | CCCCCCCCCCCCC/C=C/[C@@H](OC)[C@H](CO)NC(=O)COCCOCCOCCOCCOC [Compound 10v] | – | 96.1 | 87.4 | inhibition at 12.5 µM (RBL-2H3 cells; Rattus norvegicus, RBL-2H3, 12.5 μM, vs solvent vehicle): 74%; inhibition of viral reproduction (PR8 virus; influenza): very effective inhibition of the viral reproduction; inhibition at 20 µM (HIV-1 strain NL4-3): 45%
13 | CCCCCCCCCCCCC/C=C/[C@@H](OC)[C@H](CO)NC(=O)CCCCC [Compound 10k] | – | 98.6 | 59.3 | –
